Assay results taken from patent publication US9475795B2 (TAKEDA PHARMACEUTICAL COMPANY LIMITED, priority 2012, dated 2016).

Biological target: human PKR1 receptors (Homo sapiens (Human), UniProt Q8TCW9)
Test: PKR1 antagonist assay: block of PK1-mediated intracellular calcium release (FLIPR)
Type: cell-based
Conditions: RBL2H3 cells expressing human PKR1; 10 min preincubation; stimulation with PK1 at EC80; calcium fluorescence
Protocol: Prokineticin receptor 1 (PKR1) antagonists may be functionally assessed by measurement of change in intracellular calcium levels induced by Gq mediated increase in inositol triphosphate (IP3) levels. The ability of a compound to block the intracellular release of calcium mediated by PK1 in RBL2H3 cells expressing human PKR1 receptors is determined as a measure of the compound's antagonist activity in vitro.
Approximately 10,000 cells per assay well are seeded in normal culture medium in a 384 well plate (Corning). […]
To test for antagonist activity, test compounds at a final concentration range between 0.32 nM-10 μM (diluted in assay buffer) are added to the assay wells and allowed to incubate for 10 minutes prior to stimulation with PK1. After incubation with test compounds the assay plate is placed in a FLIPR Tetra (Molecular Devices) and PK1 (diluted in assay buffer) is added at the determined EC80 concentration (final). Ligand-dependent changes in intracellular calcium levels are determined by measuring changes in fluorescence of the dye at […] following excitation at 485 nm.

human PKR1 receptors, sequence (Q8TCW9 whole entry): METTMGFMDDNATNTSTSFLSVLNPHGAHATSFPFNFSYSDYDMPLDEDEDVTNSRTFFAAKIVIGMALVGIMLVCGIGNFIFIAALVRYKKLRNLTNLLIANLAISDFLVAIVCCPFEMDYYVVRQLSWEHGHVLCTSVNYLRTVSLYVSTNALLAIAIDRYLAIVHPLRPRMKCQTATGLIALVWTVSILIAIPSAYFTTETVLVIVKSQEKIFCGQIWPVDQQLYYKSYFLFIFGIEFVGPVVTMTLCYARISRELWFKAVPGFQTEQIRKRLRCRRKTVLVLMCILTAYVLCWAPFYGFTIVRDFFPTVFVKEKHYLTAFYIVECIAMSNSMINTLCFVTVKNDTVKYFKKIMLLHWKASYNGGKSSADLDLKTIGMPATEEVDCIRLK

Cc1nn(C)c(C)c1S(=O)(=O)N1CCC(N(C)c2ccc(Cl)cc2)CC1 [Example 53]
IC50: 900 nM
